Test results reported in patent US7294625B2, “Pyrazole compounds” (Ube Industries, Ltd., priority 2002, dated 2007).

target: T1, p38MAP kinase (Homo sapiens, UniProt Q16539); experiment: Enzyme inhibitory test against p38MAP kinase; format: biochemical; conditions: active type p38MAP kinase, EGFR peptide substrate, [γ-32P]ATP, 30° C. 30 minutes; read-out: p38MAP kinase inhibition IC50 value
T1 construct: purchased Stratagene (p38MAP kinase); Upstate (SKK/MKK6) #206145 (p38MAP kinase); #14-225 or #14-303 (SKK/MKK6)
Method: Test Example 1 Enzyme Inhibitory Test Against p38MAP Kinase
(1) Preparatoin of Active Type p38MAP Kinase
An active type p38MAP kinase was prepared by incubation in a reaction solution (25 mM Tris-HCl pH 7.5, 5 mM β-glycerolphosphate, 2 mM DTT, 0.1 mM […], 10 mM MgCl2, 1 mM ATP) containing p38MAP kinase (Stratagene, #206145) and SKK/MKK6 (Upstate, #14-225 or #14-303) at 30° C. for 1 to 3 hours. This enzyme solution was diluted 5 to 10-fold with Stock Buffer (50 mM Tris-HCl pH 7.5, 0.1 mM EGTA, 0.2 mM Orthovanadate, 0.1% 2-ME, 10% glycerol, 0.03% Brij-35, 0.5 μM Microcystin), and preserved under freezing (−80° C.).
(2) Measurement of Inhibitory Activity of p38MAP Kinase
To 34 μL of a reaction solution (25 mM HEPES, pH 7.5, 10 mM Magnesium acetate) containing the active type p38MAP kinase prepared as mentioned above and a substrate (final concentration: […] EGFR; […]) was added 1 μL of DMSO, or a compound to be tested and dissolved in DMSO, then, the mixture was subjected to preincubation at 4° C. for 30 minutes. A reaction was started by adding 5 μL of an ATP solution (400 μM ATP, 1 μCi/μL [γ-^32P]ATP), and reacted at 30° C. for 30 minutes, and then, the reaction was stopped by adding 5 μL of 250 mM H3PO4. 25 μL of the reaction solution was placed on chromatography paper (Whatman, #P81), dried for about 2 minutes, and washed with 75 mM H3PO4. Water was removed by using 95% ethanol, it was transferred to a bial containing liquid scintillation cocktail (available from Nacalai Tesque), and radioactivity was measured. A concentration (IC50 value) of a compound to be tested necessary for inhibiting 50% of phosphrylation (^32P) of the substrate by the enzyme was calculated as compared to that non-treated by the compound to be tested by XL-fit (available from IDBS).

T1 sequence (Q16539 whole entry): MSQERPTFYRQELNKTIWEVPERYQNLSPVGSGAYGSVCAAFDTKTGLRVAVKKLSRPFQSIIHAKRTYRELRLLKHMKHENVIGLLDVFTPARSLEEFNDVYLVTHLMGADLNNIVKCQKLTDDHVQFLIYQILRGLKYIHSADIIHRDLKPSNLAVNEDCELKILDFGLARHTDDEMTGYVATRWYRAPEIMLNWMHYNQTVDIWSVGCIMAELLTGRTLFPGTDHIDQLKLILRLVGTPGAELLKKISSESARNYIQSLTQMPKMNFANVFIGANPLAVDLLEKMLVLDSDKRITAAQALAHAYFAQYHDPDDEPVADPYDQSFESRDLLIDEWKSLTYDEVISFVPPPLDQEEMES

Row | SMILES | IC50
1 | Nc1cc(-c2cn(-c3ccc(=O)[nH]n3)nc2-c2cccc(F)c2)ccn1 [Example 22, 4-(2-Aminopyridin-4-yl)-3-(3-fluorophenyl)-1-(1,6-dihydro-6-oxopyridazin-3-yl)-1H-pyrazole] | 6.6 nM
2 | Nc1cc(-c2cn(-c3ccc4nncn4n3)nc2-c2ccc(F)c(F)c2)ccn1 [Example 40, 4-(2-Aminopyridin-4-yl)-3-(3,4-difluorophenyl)-1-([1,2,4]triazolo[4,3-b]pyridazin-6-yl)-1H-pyrazole] | 8.7 nM
3 | CCNc1cc(-c2cn(-c3ccc(=O)[nH]n3)nc2-c2ccc(F)cc2)ccn1 [Example 27, 4-(2-Ethylaminopyridin-4-yl)-3-(4-fluorophenyl)-1-(1,6-dihydro-6-oxopyridazin-3-yl)-1H-pyrazole] | 1.3 nM
4 | CC(=O)Nc1cc(-c2cn(C3=NNC(=O)CC3)nc2-c2ccc(F)cc2)ccn1 [Example 57, 4-(2-Acetylaminopyridin-4-yl)-3-(4-fluorophenyl)-1-(1,4,5,6-tetrahydro-6-oxopyridazin-3-yl)-1H-pyrazole] | 2.1 nM
5 | CC(=O)Nc1cc(-c2cn(C3=NNC(=O)CC3)nc2-c2ccccc2F)ccn1 [Example 62, 4-(2-Acetylaminopyridin-4-yl)-3-(2-fluorophenyl)-1-(1,4,5,6-tetrahydro-6-oxopyridazin-3-yl)-1H-pyrazole] | 1.3 nM
6 | Nc1cc(-c2cn(-c3cc(N)c(=O)[nH]n3)nc2-c2ccc(F)cc2)ccn1 [Example 4, 1-(5-Amino-1,6-dihydro-6-oxopyridazin-3-yl)-4-(2-aminopyridin-4-yl)-3-(4-fluorophenyl)-1H-pyrazole] | 2.5 nM
7 | CC(=O)Nc1cc(-c2cn(-c3ccc4nncn4n3)nc2-c2ccc(F)cc2)ccn1 [Example 9, 4-(2-Acetylaminopyridin-4-yl)-3-(4-fluorophenyl)-1-([1,2,4]triazolo[4,3-b]pyridazin-6-yl)-1H-pyrazole] | 5.4 nM
8 | O=c1ccc(-n2cc(-c3ccncc3)c(-c3ccc(F)cc3)n2)n[nH]1 [Example 1, 3-(4-Fluorophenyl)-1-(1,6-dihydro-6-oxopyridazin-3-yl)-4-(pyridin-4-yl)-1H-pyrazole] | 8.9 nM
9 | Nc1cc(-c2cn(-c3ccc(=O)[nH]n3)nc2-c2cccc(C(F)(F)F)c2)ccn1 [Example 25, 4-(2-Aminopyridin-4-yl)-1-(1,6-dihydro-6-oxopyridazin-3-yl)-3-(3-trifluoromethylphenyl)-1H-pyrazole] | 5.9 nM
10 | O=c1ccc(-n2cc(-c3ccnc(NCC(F)(F)F)c3)c(-c3ccccc3F)n2)n[nH]1 [Example 34, 3-(2-Fluorophenyl)-1-(1,6-dihydro-6-oxopyridazin-3-yl)-4-[2-(2,2,2-trifluoroethyl)aminopyridin-4-yl]-1H-pyrazole] | 0.2 nM
11 | COC(=O)Nc1cc(-c2cn(-c3ccc4nncn4n3)nc2-c2ccc(F)cc2)ccn1 [Example 11, 3-(4-Fluorophenyl)-4-(2-methoxycarbonylaminopyridin-4-yl)-1-([1,2,4]triazolo[4,3-b]pyridazin-6-yl)-1H-pyrazole] | 6.1 nM
12 | CC(Nc1cc(-c2cn(-c3ccc4nncn4n3)nc2-c2ccc(F)cc2)ccn1)c1ccccc1 (centres unmarked) [Example 18, 3-(4-Fluorophenyl)-4-[2-(1-phenethylamino)pyridin-4-yl]-1-([1,2,4]triazolo[4,3-b]pyridazin-6-yl)-1H-pyrazole] | 3.7 nM
13 | Cc1cc(-n2cc(-c3ccnc(N)c3)c(-c3ccc(F)cc3)n2)n[nH]c1=O [Example 32, 4-(2-Aminopyridin-4-yl)-3-(4-fluorophenyl)-1-(1,6-dihydro-5-methyl-6-oxopyridazin-3-yl)-1H-pyrazole] | 3.4 nM
14 | O=C(Nc1cc(-c2cn(-c3ccc4nncn4n3)nc2-c2ccc(F)cc2)ccn1)C1CCCC1 [Example 45, 4-(2-Cyclopentylcarbonylaminopyridin-4-yl)-3-(4-fluorophenyl)-1-([1,2,4]triazolo[4,3-b]pyridazin-6-yl)-1H-pyrazole] | 4.9 nM

system: cytokine (IL-1β and TNF-α) induced IL-6 production; experiment: Inhibition of IL-6 production in rat (in vivo); conditions: LEW rats, 3 mg/Kg oral, 1 hour before IL-1β/TNF-α i.v., serum IL-6 two hours later
Method: Test Example 3 Inhibition of IL-6 Production in Rat (In Vivo)
A cytokine mixed solution of IL-1β and TNF-α was intravenously injected to rats to induce production of IL-6. A mixed solution of IL-1β (available from R&D) (4 μg/ml) and TNF-α (available from R&D) (2 μg/ml) dissolved in PBS was administered to tail vein of LEW series rats (female, body weight: about 140 to 170 g, available from Charles River Japan, Inc.) fasted overnight with a ratio of 1 ml/kg of the body weight. Two hours later, blood was collected from the neck vein under ether anesthesia. The collected blood was centrifuged under the conditions of 20° C. and 10,000×g to separate serum. IL-6 concentration in the serum was measured by using an enzyme-linked immunosorbent assay (ELISA) kit (IL-6 ELISA KIT, available from R&D).
The test compound or the vehicle was orally administered with a dose of 10 ml/kg of the body weight before 1 hour of the injection of the cytokine mixed solution. The control group to which the vehicle was administered and the group of the compound to be tested were each 5 rats per group. An inhibitory ratio of the group of the compound to be tested based on control group was calculated.

Row | SMILES | Rat cytokine induced IL-6 production inhibiting ratio (%) @3 mg/Kg
15 | Nc1cc(-c2cn(-c3ccc(=O)[nH]n3)nc2-c2ccccc2F)ccn1 [Example 26, 4-(2-Aminopyridin-4-yl)-3-(2-fluorophenyl)l-1(1,6-dihydro-6-oxopyridazin-3-yl)-1H-pyrazole] | 77%
16 | CNc1cc(-c2cn(-c3ccc(=O)[nH]n3)nc2-c2ccc(F)cc2)ccn1 [Example 3, 3-(4-Fluorophenyl)-1-(1,6-dihydro-6-oxopyridazin-3-yl)-4-(2-methylaminopyridin-4-yl)-1H-pyrazole] | 81%

system: LPS-induced TNF-α production in human PBMC; experiment: Inhibition of TNF-α production in human PBMC (in vitro); format: cell-based; conditions: LPS 10 μg/ml, 18 hours, TNF-α ELISA, read-out: Inhibitory effect on LPS-induced TNF-α production in human PBMC IC50 value
Method: Test Example 2 Inhibition of TNF-α Production in Human PBMC (In Vitro)
Test was carried out according to the method of Welker et al. (Int. Arch. Allergy Immunol., 109, 110-115 (1996).
Heparin-added blood collected from healthy volunteer with consent was underlayed with a specific gravity-separating solution (Lymphoprep; available from Daiichi Pure Chemicals Co., Ltd.), subjected to centrifugation (800×g, 25 minutes), and a mononuclear cell layer was recovered. The obtained mononuclear cells (human PBMC) were washed twice with PBS (available from SIGMA), and resuspended in 1% FCS-containing RPMI aqueous solution (available from GIBCO) so that the cells became 5×10^6 cells/mL. The thus obtained cell suspension was diluted 10-fold with 1% FCS-containing RPMI medium, DMSO (or the compound to be tested) with a final concentration of 0.5% was added thereto, and cultured at 37° C. in 5% CO2 for 1 hour. After that, LPS (derived from E. Coli 055:5B, available from SIGMA) solution prepared by PBS was added so that the final concentration thereof being 10 μg/ml, and cultivation was carried out for further 18 hours. After the cultivation, culture medium was subjected to centrifugation (800×g, 10 minutes), and a concentration of TNF-α produced in the supernatant was measured by an enzyme-linked immunosorbent assay (ELISA) kit (TNF-α ELISA Kit, available from R&D). The concentration (IC50 value) of the test compound for inhibiting 50% of TNF-α production was calcualted by using XL-fit (available from IDBS).

Row | SMILES | IC50
17 | O=c1ccc(-n2cc(-c3ccnc(NCC(F)(F)F)c3)c(-c3ccc(F)cc3)n2)n[nH]1 [Example 28, 3-(4-fluorophenyl)-1-(1,6-dihydro-6-oxopyridazin-3-yl)-4-[2-(2,2,2-trifluoroethyl)aminopyridin-4-yl]-1H-pyrazole] | 7 nM
18 | CC(=O)Nc1cc(-c2cn(-c3ccc(=O)[nH]n3)nc2-c2ccccc2F)ccn1 [Example 35, 4-(2-Acetylaminopyridin-4-yl)-3-(2-fluorophenyl)-1-(1,6-dihydro-6-oxopyridazin-3-yl)-1H-pyrazole] | 6 nM
19 | Nc1cc(-c2cn(-c3cc(N)c(=O)[nH]n3)nc2-c2ccc(F)cc2)ccn1 [Example 4, 1-(5-Amino-1,6-dihydro-6-oxopyridazin-3-yl)-4-(2-aminopyridin-4-yl)-3-(4-fluorophenyl)-1H-pyrazole] | 28 nM
20 | Nc1cc(-c2cn(C3=NNC(=O)CC3)nc2-c2ccccc2F)ccn1 [Example 55, 4-(2-Aminopyridin-4-yl)-3-(2-fluorophenyl)-1-(1,4,5,6-tetrahydro-6-oxopyridazin-3-yl)-1H-pyrazole] | 36 nM
21 | O=C1CCC(n2cc(-c3ccnc(NCC(F)(F)F)c3)c(-c3ccccc3F)n2)=NN1 [Example 61, 3-(2-Fluorophenyl)-1-(1,4,5,6-tetrahydro-6-oxopyridazin-3-yl)-4-[2-(2,2,2-trifluoroethyl)aminopyridin-4-yl]-1H-pyrazole] | 4 nM
22 | O=C1CCC(n2cc(-c3ccnc(NC(=O)C4CC4)c3)c(-c3ccccc3F)n2)=NN1 [Example 65, 4-(2-Cyclopropylcarbonylaminopyridin-4-yl)-3-(2-fluorophenyl)-1-(1,4,5,6-tetrahydro-6-oxopyridazin-3-yl)-1H-pyrazole] | 15 nM
23 | O=C(Nc1cc(-c2cn(-c3ccc4nncn4n3)nc2-c2ccc(F)cc2)ccn1)C1CC1 [Example 43, 4-(2-Cyclopropylcarbonylaminopyridin-4-yl)-3-(4-fluorophenyl)-1-([1,2,4]triazolo[4,3-b]pyridazin-6-yl)-1H-pyrazole] | 14 nM
